Results taken from patent publication US9512142B2, “Tricyclic triazolic compounds” (LABORATORIOS DEL DR. ESTEVE S.A., priority 2013, dated 2016).
Where two headings read alike, the source gives them in different places.

Key:
Kinetic solubility = type: physicochemical; details: kinetic from dmso stock, buffered aqueous solution at pH=7.4, 10 μL of 10 mM DMSO solution in 1 mL, stirred 4 hours, supernatant by liquid chromatography, read-out: Kin. Solub.
Protocol: To a buffered aqueous solution at pH=7.4 (1 mL), a 10 mM DMSO solution of the test compound (10 μL) was added and the mixture stirred for 4 hours. After centrifugation, the compound concentration in the supernatant was determined by liquid chromatography by fitting in a calibration curve of the compound.

human sigma 1 receptor = biological target: T1, human sigma 1 receptor (Homo sapiens, UniProt Q99720); test: Human sigma 1 receptor radioligand assay ([3H](+)-pentazocine, transfected HEK-293 membranes); type: binding; details: 5 nM [3H](+)-pentazocine, transfected HEK-293 membranes, 37° C., 120 minutes; read-out: Ki
T1 construct: expressed in transfected cells; host or cells: HEK-293
T1 sequence (Q99720 whole entry): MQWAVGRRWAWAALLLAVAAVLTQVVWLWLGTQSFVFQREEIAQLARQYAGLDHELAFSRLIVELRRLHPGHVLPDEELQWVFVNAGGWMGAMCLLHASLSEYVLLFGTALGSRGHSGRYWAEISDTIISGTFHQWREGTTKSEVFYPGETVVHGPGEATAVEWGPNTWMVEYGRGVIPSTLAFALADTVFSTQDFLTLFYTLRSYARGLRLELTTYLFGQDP
Protocol: Human Sigma 1 Receptor Radioligand Assay
The assay was carried out with 7 μg of membrane suspension, 5 nM of [^3H](+)-pentazocine in either absence or presence of either buffer or 10 μM Haloperidol for total and non-specific binding, respectively. Binding buffer contained Tris-HCl 50 mM at pH 8. Plates were incubated at 37° C. for 120 minutes. After the incubation period, the reaction mix was then transferred to MultiScreen HTS, FC plates (Millipore), filtered and plates were washed 3 times with ice-cold 10 mM Tris-HCL (pH7.4). Filters were dried and counted at approximately 40% efficiency in a MicroBeta scintillation counter (Perkin-Elmer) using EcoScint liquid scintillation cocktail.

[1] = buffered aqueous solution, pH 7.4, aqueous buffer

SMILES | Ki (human sigma 1 receptor) | solubility at 4 h (Kinetic solubility; [1]) | solubility at 4 h (Kinetic solubility; aqueous buffer)
Cl.FC(F)(F)c1ccc(-c2nnn3c2CO[C@H]2CN(C4CCOCC4)C[C@@H]23)c(Cl)c1 [Example 55, (5aS,8aS)-3-(2-chloro-4-(trifluoromethyl)phenyl)-7-(tetrahydro-2H-pyran-4-yl)-4,5a,6,7,8,8a-hexahydropyrrolo[3,4-b][1,2,3]triazolo[1,5-d][1,4]oxazine hydrochloride] | 23.3 nM |  | > 10 µM
Cl.Clc1ccc(-c2nnn3c2CO[C@H]2CN(C[C@@H]4CCOC4)C[C@@H]23)c(Cl)c1 [Example 56, (5aS,8aS)-3-(2,4-dichlorophenyl)-7-(((S)-tetrahydrofuran-3-yl)methyl)-4,5a,6,7,8,8a-hexahydropyrrolo[3,4-b][1,2,3]triazolo[1,5-d][1,4]oxazine hydrochloride] | 22.7 nM | > 10 µM | 
Cl.Clc1ccc(-c2nnn3c2CO[C@@H]2CN(C[C@H]4CCOC4)C[C@H]23)c(Cl)c1 [Example 57, (5aR,8aR)-3-(2,4-dichlorophenyl)-7-(((R)-tetrahydrofuran-3-yl)methyl)-4,5a,6,7,8,8a-hexahydropyrrolo[3,4-b][1,2,3]triazolo[1,5-d][1,4]oxazine hydrochloride] | 195 nM | > 10 µM | 
Cl.Clc1ccc(-c2nnn3c2CO[C@H]2CN(C[C@H]4CCOC4)C[C@@H]23)c(Cl)c1 [Example 58, (5aS,8aS)-3-(2,4-dichlorophenyl)-7-(((R)-tetrahydrofuran-3-yl)methyl)-4,5a,6,7,8,8a-hexahydropyrrolo[3,4-b][1,2,3]triazolo[1,5-d][1,4]oxazine hydrochloride] | 25.4 nM | > 10 µM | 
Cl.Clc1ccc(-c2nnn3c2CO[C@@H]2CN(C[C@@H]4CCOC4)C[C@H]23)c(Cl)c1 [Example 59, (5aR,8aR)-3-(2,4-dichlorophenyl)-7-(((S)-tetrahydrofuran-3-yl)methyl)-4,5a,6,7,8,8a-hexahydropyrrolo[3,4-b][1,2,3]triazolo[1,5-d][1,4]oxazine hydrochloride] | 181 nM | > 10 µM | 
Cc1occc1CN1C[C@@H]2[C@@H](C1)OCc1c(-c3ccc(F)cc3F)nnn12.Cl [Example 60, (5aR,8aR)-3-(2,4-difluorophenyl)-7-((2-methylfuran-3-yl)methyl)-4,5a,6,7,8,8a-hexahydropyrrolo[3,4-b][1,2,3]triazolo[1,5-d][1,4]oxazine hydrochloride] | 102 nM | > 10 µM | 
Cl.Cn1nccc1-c1nnn2c1CO[C@@H]1CN(Cc3ccc(F)cc3)C[C@H]12 [Example 66, (5aR,8aR)-7-(4-fluorobenzyl)-3-(1-methyl-1H-pyrazol-5-yl)-4,5a,6,7,8,8a-hexahydropyrrolo[3,4-b][1,2,3]triazolo[1,5-d][1,4]oxazine hydrochloride] | 138 nM |  | > 10 µM

Further lines, with some results ahead:

Ki (human sigma 1 receptor) | solubility at 4 h (Kinetic solubility; [1]) | SMILES | solubility at 4 h (Kinetic solubility; aqueous buffer)
73.7 nM | > 10 µM | Cc1occc1CN1C[C@@H]2OCc3c(-c4ccc(F)cc4F)nnn3[C@H]2C1.Cl [Example 61, (5aS,8aS)-3-(2,4-difluorophenyl)-7-((2-methylfuran-3-yl)methyl)-4,5a,6,7,8,8a-hexahydropyrrolo[3,4-b][1,2,3]triazolo[1,5-d][1,4]oxazine hydrochloride] | 
39.2 nM | > 10 µM | Cl.Fc1ccc(-c2nnn3c2CO[C@H]2CN(Cc4ccoc4)C[C@@H]23)c(F)c1 [Example 62, (5aS,8aS)-3-(2,4-difluorophenyl)-7-(furan-3-ylmethyl)-4,5a,6,7,8,8a-hexahydropyrrolo[3,4-b][1,2,3]triazolo[1,5-d][1,4]oxazine hydrochloride] | 
37.7 nM | > 10 µM | Cl.Fc1ccc(-c2nnn3c2CO[C@@H]2CN(Cc4ccoc4)C[C@H]23)c(F)c1 [Example 63, (5aR,8aR)-3-(2,4-difluorophenyl)-7-(furan-3-ylmethyl)-4,5a,6,7,8,8a-hexahydropyrrolo[3,4-b][1,2,3]triazolo[1,5-d][1,4]oxazine hydrochloride] | 
